# Laboratory results taken from the NIST ThermoML archive (doi:10.1021/je900738e).
# Numbers after ± are expanded uncertainties.
# Conditions: Liquid, Manometric method
Structure (SMILES),vapor or sublimation pressure (283.15 K),vapor or sublimation pressure (293.15 K),vapor or sublimation pressure (303.15 K),vapor or sublimation pressure (313.15 K),vapor or sublimation pressure (323.15 K),vapor or sublimation pressure (333.15 K),vapor or sublimation pressure (343.15 K),vapor or sublimation pressure (346.65 K),vapor or sublimation pressure (287.15 K),vapor or sublimation pressure (296.35 K),vapor or sublimation pressure (305.35 K),vapor or sublimation pressure (313.45 K),vapor or sublimation pressure (323.05 K),vapor or sublimation pressure (332.95 K),vapor or sublimation pressure (343.05 K),vapor or sublimation pressure (352.85 K),vapor or sublimation pressure (363.05 K),vapor or sublimation pressure (372.85 K)
"OCC(F)(F)F [2,2,2-trifluoroethanol]",3.96 ± 0.22 kPa,7.25 ± 0.22 kPa,12.82 ± 0.23 kPa,21.83 ± 0.26 kPa,36.1 ± 0.3 kPa,57.08 ± 0.38 kPa,87.31 ± 0.46 kPa,100.8 ± 0.52 kPa,–,–,–,–,–,–,–,–,–,–
O [water],–,–,–,–,–,–,–,–,1.64 ± 0.21 kPa,2.81 ± 0.22 kPa,4.74 ± 0.22 kPa,7.51 ± 0.23 kPa,12.26 ± 0.26 kPa,19.69 ± 0.32 kPa,30.94 ± 0.42 kPa,46.73 ± 0.57 kPa,69.75 ± 0.8 kPa,100.32 ± 1.1 kPa
